Data from ChEMBL document CHEMBL5244219, “Recent developments of quinolone-based derivatives and their activities against Escherichia coli” (Eur J Med Chem, 2018).
Converted amounts (≈) assume the structure as drawn.

Tests used:
Assay type in all cases: functional
Escherichia coli [1] = assay: Antibacterial activity against Escherichia coli NCTC 10418 assessed as bacterial growth inhibition incubated for 18 to 20 hrs by agar dilution method; settings: time 18-20 hrs
Escherichia coli [2] = assay: Antibacterial activity against Escherichia coli assessed as bacterial growth inhibition incubated for 16 to 24 hrs by absorbance analysis; settings: time 16-24 hrs
Escherichia coli [3] = assay: Antibacterial activity against Escherichia coli NIHJ JC-2 assessed as bacterial growth inhibition measured after 24 hrs by agar dilution method
Escherichia coli [4] = assay: Antibacterial activity against Escherichia coli NIHJ assessed as bacterial growth inhibition measured after 24 hrs by agar dilution method
Escherichia coli [5] = assay: Antibacterial activity against Escherichia coli 2010-05 assessed as bacterial growth inhibition measured after 24 hrs by agar dilution method
Escherichia coli [6] = assay: Antibacterial activity against Escherichia coli 2010-29 assessed as bacterial growth inhibition measured after 24 hrs by agar dilution method
Escherichia coli [7] = assay: Antibacterial activity against Escherichia coli KC-14 infected in po dosed mouse assessed as bacterial growth inhibition; settings: Escherichia coli
Escherichia coli [8] = assay: Antibacterial activity against Escherichia coli ATCC 8739 assessed as bacterial growth inhibition incubated for 24 hrs by two-serial dilution method
Escherichia coli [9] = assay: Antibacterial activity against Escherichia coli assessed as bacterial growth inhibition incubated for 18 to 20 hrs by agar dilution method; settings: time 18-20 hrs
Escherichia coli [10] = assay: Antibacterial activity against Escherichia coli assessed as bacterial growth inhibition by microdilution method
Escherichia coli [11] = assay: Antibacterial activity against Escherichia coli assessed as bacterial growth inhibition measured after 24 hrs by broth micro dilution method
Escherichia coli [12] = assay: Antibacterial activity against Escherichia coli assessed as zone of inhibition at 500 to 1000 ug per disc; settings: dose 500-1000 µg
Escherichia coli [13] = assay: Antibacterial activity against Escherichia coli MTCC 739 assessed as bacterial growth inhibition incubated for 24 hrs by spectrophotometric method

**Q.** Which MIC (Escherichia coli [1]) does the source give for `CCn1cc(C(=O)O)c(=O)c2cc(F)c(N3CCN(CN4C(=O)C(=O)c5ccccc54)CC3)cc21` here?
**A.** ≤ 0.018 µg/mL

**Q.** For `Cc1[nH]c2c(C)cc([N+](=O)[O-])cc2c(=O)c1CC(=O)O`, which MIC (Escherichia coli [2]) is on record?
**A.** 8.97 µg/mL (≈ 32.5 µM)

**Q.** Which MIC (Escherichia coli [3]) does the source give for `CNC1CN(c2c(F)c(N)c3c(=O)c(C(=O)O)cn(-c4cc(N)c(F)cc4CO)c3c2Cl)C1` here?
**A.** 0.008 µg/mL (≈ 0.0167 µM)

**Q.** What about the MIC (Escherichia coli [4]) of the same molecule?
**A.** 0.008 µg/mL (≈ 0.0167 µM)

**Q.** What about the MIC (Escherichia coli [5]) of the same molecule?
**A.** 1 µg/mL (≈ 2.08 µM)

**Q.** What about the MIC (Escherichia coli [6]) of the same molecule?
**A.** 1 µg/mL (≈ 2.08 µM)

**Q.** How did the ED50 (Escherichia coli [7]; KC-14, read-out: ED50) turn out when `CCOC(=O)c1c2n(c3cc(N4CCNCC4)c(F)cc3c1=O)C(C)S2` (stereo not drawn) was run?
**A.** 0.78 mg/kg

**Q.** Which MIC (Escherichia coli [8]) does the source give for `Cc1ccc(-c2nc3c(F)cc4c(=O)c(C(=O)O)cn(C5CC5)c4c3[nH]2)cc1` here?
**A.** > 3 µg/mL

**Q.** Which MIC (Escherichia coli [9]) does the source give for `CCn1cc(C(=O)O)c(=O)c2cc(F)c(N3CCN(CN4C(=O)/C(=N\c5ncc(Cc6cc(OC)c(OC)c(OC)c6)c(N)n5)c5ccccc54)C(C)C3)c(F)c21` (stereo not drawn) here?
**A.** 0.305 µg/mL (≈ 0.39 µM)

**Q.** How did the MIC (Escherichia coli [3]) turn out when `CCNC1CN(c2c(F)cc3c(=O)c(C(=O)O)cn(-c4cc(N)c(F)cc4CO)c3c2Cl)C1` was run?
**A.** 0.008 µg/mL (≈ 0.0167 µM)

**Q.** And the MIC (Escherichia coli [4])?
**A.** 0.008 µg/mL (≈ 0.0167 µM)

**Q.** And the MIC (Escherichia coli [5])?
**A.** 1 µg/mL (≈ 2.09 µM)

**Q.** And the MIC (Escherichia coli [6])?
**A.** 1 µg/mL (≈ 2.09 µM)

**Q.** How did the MIC (Escherichia coli [10]) turn out when `CC(=O)NC[C@H]1CN(c2ccc(NC3CN(c4nc5c(cc4F)c(=O)c(C(=O)O)cn5C4CC4)C3)c(F)c2)C(=O)O1` was run?
**A.** ≥ 0.5 µg/mL

**Q.** Which MIC (Escherichia coli [11]) does the source give for `CCn1cc(C(=O)O)c(=O)c2cc(F)c(-n3cc(CO[C@H]4O[C@@H](C)[C@H](OC(C)=O)[C@@H](OC(C)=O)[C@H]4OC(C)=O)nn3)c(F)c21` here?
**A.** > 6.25 µg/mL

**Q.** `CCn1cc(C(=O)O)c(=O)c2cc(F)c(N3CCN(CN4C(=O)/C(=N\c5ncc(Cc6cc(OC)c(OC)c(OC)c6)c(N)n5)c5ccccc54)CC3)cc21` was tested. Which MIC (Escherichia coli [9]) did it give?
**A.** 0.0763 µg/mL (≈ 0.102 µM)

**Q.** `CC(=O)NC[C@H]1CN(c2ccc(N3CCN(c4nc5c(cc4F)c(=O)c(C(=O)O)cn5C4CC4)CC3)c(F)c2)C(=O)O1` was tested. Which MIC (Escherichia coli [10]) did it give?
**A.** ≥ 0.5 µg/mL

**Q.** Which “diameter of the inhibition zone (DIZ)” value (Escherichia coli [12]) does the source give for `O=c1[nH]c2ccccc2c2c1cnn2Cc1ccccc1` here?
**A.** 7 mm

**Q.** With `CCOC(=O)c1c2n(c3cc(N4CCN(C(C)=O)CC4)c(F)cc3c1=O)C(C)S2` (stereo not drawn) as the molecule, how does the ED50 (Escherichia coli [7]; KC-14, po, read-out: ED50) read?
**A.** 0.89 mg/kg

**Q.** `Nc1cc(-n2cc(C(=O)O)c(=O)c3cc(F)c(N4CC(O)C4)c(Cl)c32)c(CO)cc1F` was tested. Which MIC (Escherichia coli [3]) did it give?
**A.** 0.008 µg/mL (≈ 0.0177 µM)

**Q.** What about the MIC (Escherichia coli [4]) of the same molecule?
**A.** 0.008 µg/mL (≈ 0.0177 µM)

**Q.** What about the MIC (Escherichia coli [5]) of the same molecule?
**A.** 1 µg/mL (≈ 2.21 µM)

**Q.** And the MIC (Escherichia coli [6])?
**A.** 1 µg/mL (≈ 2.21 µM)

**Q.** Which MIC (Escherichia coli [8]) does the source give for `O=C(O)c1cn(C2CC2)c2c(cc(F)c3nc(-c4ccoc4)[nH]c32)c1=O` here?
**A.** > 3 µg/mL

**Q.** How did the MIC (Escherichia coli [3]) turn out when `CC1(N)CN(c2c(F)cc3c(=O)c(C(=O)O)cn(-c4cc(N)c(F)cc4CO)c3c2Cl)C1` was run?
**A.** 0.008 µg/mL (≈ 0.0172 µM)

**Q.** And the MIC (Escherichia coli [4])?
**A.** 0.008 µg/mL (≈ 0.0172 µM)

**Q.** What about the MIC (Escherichia coli [5]) of the same molecule?
**A.** 1 µg/mL (≈ 2.15 µM)

**Q.** And the MIC (Escherichia coli [6])?
**A.** 1 µg/mL (≈ 2.15 µM)

**Q.** For `O=C(O)c1cn(C2CC2)c2c(cc(F)c3nc(-c4ccncc4)[nH]c32)c1=O`, which MIC (Escherichia coli [8]) is on record?
**A.** > 3 µg/mL

**Q.** `O=c1[nH]c2ccc(F)cc2c2c1cnn2Cc1ccccc1` was tested. Which “diameter of the inhibition zone (DIZ)” value (Escherichia coli [12]) did it give?
**A.** 7 mm

**Q.** Which MIC (Escherichia coli [2]) does the source give for `Cc1[nH]c2ccc([N+](=O)[O-])cc2c(=O)c1CC(=O)O` here?
**A.** 8.97 µg/mL (≈ 34.2 µM)

**Q.** With `COc1cc(Cc2cnc(/N=C3\C(=O)N(CN4CCN(c5c(F)cc6c(=O)c(C(=O)O)cn(C7CC7)c6c5OC)CC4C)c4ccccc43)nc2N)cc(OC)c1OC` (stereo not drawn) as the molecule, how does the MIC (Escherichia coli [9]) read?
**A.** 0.02 µg/mL (≈ 0.0248 µM)

**Q.** Which MIC (Escherichia coli [13]) does the source give for `Cn1c(=O)cc(OCc2nn(CN3CCN(c4cccc(C(F)(F)F)c4)CC3)c(=S)s2)c2ccccc21` here?
**A.** 25 µg/mL (≈ 45.7 µM)

**Q.** For `COc1ccc(N2CCN(Cn3nc(COc4cc(=O)n(C)c5ccccc45)oc3=S)CC2)cc1`, which MIC (Escherichia coli [13]) is on record?
**A.** 25 µg/mL (≈ 50.6 µM)

**Q.** For `Cn1c(=O)cc(OCc2nn(CN3CCN(c4ccccc4F)CC3)c(=S)s2)c2ccccc21`, which MIC (Escherichia coli [13]) is on record?
**A.** 25 µg/mL (≈ 50.2 µM)

**Q.** For `O=C(O)c1cn(C2CC2)c2c(cc(F)c3nc[nH]c32)c1=O`, which MIC (Escherichia coli [8]) is on record?
**A.** > 3 µg/mL

**Q.** Which MIC (Escherichia coli [13]) does the source give for `Cn1c(=O)cc(OCc2nn(CN3CCN(c4ccc(C(F)(F)F)cc4)CC3)c(=S)o2)c2ccccc21` here?
**A.** 25 µg/mL (≈ 47 µM)

**Q.** For `COc1ccc2[nH]c(=O)c3cnn(Cc4ccccc4)c3c2c1`, which “diameter of the inhibition zone (DIZ)” value (Escherichia coli [12]) is on record?
**A.** 7 mm

**Q.** With `Nc1cc(-n2cc(C(=O)O)c(=O)c3cc(F)c(N4CC(N)C4)c(Cl)c32)c(CO)cc1F` as the molecule, how does the MIC (Escherichia coli [3]) read?
**A.** 0.008 µg/mL (≈ 0.0177 µM)

**Q.** What about the MIC (Escherichia coli [4]) of the same molecule?
**A.** 0.008 µg/mL (≈ 0.0177 µM)

**Q.** What about the MIC (Escherichia coli [5]) of the same molecule?
**A.** 1 µg/mL (≈ 2.22 µM)

**Q.** What about the MIC (Escherichia coli [6]) of the same molecule?
**A.** 1 µg/mL (≈ 2.22 µM)

**Q.** For `CCn1cc(C(=O)O)c(=O)c2cc(F)c(N3CCN(CN4C(=O)/C(=N/NC(N)=S)c5cc(Cl)ccc54)CC3)cc21`, which MIC (Escherichia coli [1]) is on record?
**A.** ≤ 0.018 µg/mL

**Q.** For `O=C(O)c1cn(C2CC2)c2c(cc(F)c3nc(-c4cccs4)[nH]c32)c1=O`, which MIC (Escherichia coli [8]) is on record?
**A.** > 3 µg/mL

**Q.** With `O=C(O)c1cn(C2CC2)c2c(cc(F)c3nc(-c4ccsc4)[nH]c32)c1=O` as the molecule, how does the MIC (Escherichia coli [8]) read?
**A.** > 3 µg/mL

**Q.** How did the MIC (Escherichia coli [8]) turn out when `O=C(O)c1cn(C2CC2)c2c(cc(F)c3nc(-c4ccc(F)cc4)[nH]c32)c1=O` was run?
**A.** > 3 µg/mL

**Q.** `O=C(O)c1cn(C2CC2)c2c(cc(F)c3nc(-c4ccc(Cl)cc4)[nH]c32)c1=O` was tested. Which MIC (Escherichia coli [8]) did it give?
**A.** > 3 µg/mL

**Q.** `Cn1c(=O)cc(OCc2nn(CN3CCN(c4ccc(C(F)(F)F)cc4)CC3)c(=S)s2)c2ccccc21` was tested. Which MIC (Escherichia coli [13]) did it give?
**A.** 25 µg/mL (≈ 45.7 µM)

**Q.** Which results are given for `CNC1CN(c2c(F)c(C)c3c(=O)c(C(=O)O)cn(-c4cc(N)c(F)cc4CO)c3c2Cl)C1`?
**A.** MIC (Escherichia coli [3]): 0.008 µg/mL (≈ 0.0167 µM); MIC (Escherichia coli [4]): 0.008 µg/mL (≈ 0.0167 µM); MIC (Escherichia coli [5]): 1 µg/mL (≈ 2.09 µM); MIC (Escherichia coli [6]): 1 µg/mL (≈ 2.09 µM)

**Q.** With `Cc1[nH]c2ccc(Cl)cc2c(=O)c1CC(=O)O` as the molecule, how does the MIC (Escherichia coli [2]) read?
**A.** 8.97 µg/mL (≈ 35.6 µM)
